Measurements taken from patent publication US20130288956A1, “COMBINED PHARMACEUTICAL COMPOSITION AS ANTIFUNGAL AGENT” (priority 2010, published 2013).

Assays:
[1] = tested on: C. albicans; assay: In vitro combination effects, checkerboard method by micro dilution (FIC index); format: cell-based, Candida albicans; settings: C. albicans (20 strains); combination use with Test Compound 1
Method: (§1) A clinically isolated strain retained by the Medical Mycology Research Center of Chiba University (Code No. IFM) and a clinically isolated strain retained by the Life Science Research Center of Gifu University (Code No. E) were used as Candida and Aspergillus strains.
(§2) Fungus liquid obtained by static culturing at 35° C. for 48 hours in Sabouraud Dextrose liquid medium (SDB, Becton, Dickinson and Co.) was diluted with RPMI 1640 medium (Nissui Pharmaceutical Co., Ltd.) containing 0.165 M 3-(N-morpholino)propanesulfonic acid (MOPS) to prepare a fungus liquid having a fungus concentration of 1×10^3 cells/mL to 2×10^3 cells/mL.
(§3) Test Compound 1 (0.0005 μg/mL to 1.56 μg/mL) in the horizontal rows (12 wells) of a 96-well flat-bottom plate, and an antifungal agent in the form of ravuconazole (0.0015 μg/mL to 6.25 μg/mL), fluconazole (0.008 μg/mL to 32 μg/mL), voriconazole (0.0002 μg/mL to 8 μg/mL), micafungin (0.0005 μg/mL to 0.25 μg/mL), caspofungin (0.0005 μg/mL to 1 μg/mL) or amphotericin B (0.008 μg/mL to 8 μg/mL) in the vertical rows (8 wells) of the flat-bottom plate were prepared by diluting so as to blend together using RPMI 1640 medium containing 0.165 M MOPS to obtain a control group, a single Test Compound 1 group, each one of antifungal agents groups and combination groups of Test Compound 1+each one of antifungal agents.
(§4) The fungus liquids prepared in (1) were inoculated into the wells of 96-well flat-bottom plate containing 20 μL/well to 75 μL/well of the diluted test drug liquids prepared in (2) at 80 μL/well to 125 μL/well, followed by aerobically static culturing for 25 hours to 48 hours at 35° C.
(§5) Combination effects of Test Compound 1 and the antifungal agents were measured with the checkerboard method by micro dilution.
(§6) Interaction between both drugs was assessed by calculating the FIC index using the calculation formula indicated below.
(§7) The FIC index was calculated for each combination of antifungal agent concentrations that inhibited fungal growth, and the minimum value of the resulting FIC index was used as a combination FIC index.
(§8) A combination FIC index of 0.5 or less was evaluated as indicating synergistic action, that of 0.5 to 1 or less was evaluated as indicating additive action, and that of 1 to 4 or less was evaluated as indicating indifferent action.
(§9) FIC Index=(MIC value of drug A during combination use/MIC value of drug A when used alone)+(MIC value of drug B during combination use/MIC value of drug B when used alone) (Calculation Formula)

[2] = tested on: C. tropicalis; assay: as above; format: cell-based, Candida tropicalis; settings: C. tropicalis (10 strains); combination use with Test Compound 1
Method: as §1, §2, §3, §4, §5, §6, §7, §8, §9

[3] = tested on: C. glabrata; assay: as above; format: cell-based, Candida glabrata; settings: for Ratio indicating Additive effect of combination use with Test Compound 1 / Ratio indicating Antagonistic effect of combination use with Test Compound 1 / Ratio indicating Indifferent effect of combination use with Test Compound 1 / Ratio indicating Synergistic effect of combination use with Test Compound 1: C. glabrata (10 strains)
Method: as §1, §2, §3, §4, §5, §6, §7, §8, §9

[4] = tested on: A. fumigatus; assay: as above; format: cell-based, Aspergillus fumigatus; settings: A. fumigatus (18 strains)
Method: as §1
(§10) An Aspergillus strain stored frozen at −80° C., or spores obtained by static culturing at 35° C. for 1 week in Potato Dextrose agar medium (PDA, Eiken Chemical Co., Ltd.) followed by scraping from the container with a metal loop, was diluted with RPMI 1640 medium containing 0.165 M MOPS to prepare a fungus liquid having a fungus concentration of 0.75×10^4 cells/mL to 1.33×10^4 cells/mL.
as §3, §4, §5, §6, §7, §8, §9

[5] = tested on: A. flavus; assay: as above; format: cell-based, Aspergillus flavus; settings: A. flavus (4 strains), Table 1
Method: as §1, §10, §3, §4, §5, §6, §7, §8, §9

[6] = tested on: A. flavus strain IFM50915; assay: A. flavus respiratory tract infection model; format: in vivo, mice
Method: (§11) Female DBA/2N mice (age 8 weeks, Charles River Laboratories Japan, Inc.) were subcutaneously administered 200 mg/kg of 5-fluorouracil 5 or 6 days prior to infection in order to put the mice into a compromised state.
(§12) A. fumigatus strain IFM52108 and A. flavus strain IFM50915 were used.
A liquid containing spores of A. flavus strain IFM50915 stored at −80° C. was thawed, and the number of spores was counted using a hemocytometer followed by diluting with sterile physiological saline containing 0.05% Tween 80 to a concentration of 0.6×10^6 cells/mL to 1.0×10^6 cells/mL to obtain an inoculation fungus liquid.
(§13) 50 μl of inoculation fungus liquid were inoculated into the nasal cavities of 9-week-old mice at 0.3×10^5 cells/mouse to 1.25×10^5 cells/mouse under Ketalar anesthesia.
(§14) 0.1 mL to 0.2 mL of each drug solution (dissolved in sterile physiological saline or 5% glucose solution, or dissolved in sterile physiological saline or 5% glucose solution containing 6.5% dimethylsulfoxide and 3.5% Tween 80) was administered to the individual and combination dose groups either into the peritoneal cavity or into the stomach using a gastric cannula corresponding to the administration route of the drug for 3 to 4 days at the rate of 1 to 2 times per day starting 0.5 hours to 1 hour after inoculation of fungus.
(§15) There were 5 to 9 animals in each group.
(§16) Infection protection results were assessed on survival rate 14 days after infection.

[7] = tested on: A. fumigatus strain IFM52108; assay: A. fumigatus respiratory tract infection model; format: in vivo, mice
Method: as §11, §12
A liquid containing spores of A. fumigatus strain IFM52108 stored at −80° C. was applied to Potato Dextrose agar medium (PDA, Eiken Chemical Co., Ltd.) followed by static culturing for 5 to 7 days at 35° C. and suspending in sterile physiological saline containing 0.05% Tween 80.
The number of spores was counted using a hemocytometer, and the liquid was diluted with sterile physiological saline containing 0.05% Tween 80 to a concentration of 1.2×10^6 cells/mL to 2.5×10^6 cells/mL to obtain an inoculation fungus liquid.
as §13, §14, §15, §16

[8] = combination with the test compound of the invention

SMILES | Ratio indicating Additive effect of combination use with Test Compound 1 [1] | Ratio indicating Antagonistic effect of combination use with Test Compound 1 [1] | Ratio indicating Indifferent effect of combination use with Test Compound 1 [1] | Ratio indicating Synergistic effect of combination use with Test Compound 1 [1] | Ratio indicating Additive effect of combination use with Test Compound 1 [2] | Ratio indicating Antagonistic effect of combination use with Test Compound 1 [2] | Ratio indicating Indifferent effect of combination use with Test Compound 1 [2] | Ratio indicating Synergistic effect of combination use with Test Compound 1 [2] | Ratio indicating Additive effect of combination use with Test Compound 1 [3] | Ratio indicating Antagonistic effect of combination use with Test Compound 1 [3] | Ratio indicating Indifferent effect of combination use with Test Compound 1 [3] | Ratio indicating Synergistic effect of combination use with Test Compound 1 [3] | Ratio indicating Additive effect of combination use with Test Compound 1 [4] | Ratio indicating Antagonistic effect of combination use with Test Compound 1 [4] | Ratio indicating Indifferent effect of combination use with Test Compound 1 [4] | Ratio indicating Synergistic effect of combination use with Test Compound 1 [4] | Ratio indicating Additive effect of combination use with Test Compound 1 [5] | Ratio indicating Antagonistic effect of combination use with Test Compound 1 [5] | Ratio indicating Indifferent effect of combination use with Test Compound 1 [5] | Ratio indicating Synergistic effect of combination use with Test Compound 1 [5] | also measured
C[C@@H]1[C@H](O)[C@@H](C)/C=C/C=C/C=C/C=C/C=C/C=C/C=C/[C@H](O[C@@H]2O[C@H](C)[C@@H](O)[C@H](N)[C@@H]2O)C[C@@H]2O[C@](O)(C[C@@H](O)C[C@@H](O)[C@H](O)CC[C@@H](O)C[C@@H](O)CC(=O)O[C@H]1C)C[C@H](O)[C@H]2C(=O)O [Amphotericin B, amphotericin B] | 85% | 0% | 10% | 5% | 90% | 0% | 10% | 0% | 70% | 0% | 0% | 30% | 33% | 0% | 67% | 0% | 25% | 0% | 75% | 0% | Effect of combination use with Test Compound 1 (FIC index evaluation) ([3]; Candida glabrata strain IFM46888, resistant to fluconazole): synergistic (A combination FIC index of 0.5 or less was evaluated as indicating synergistic action); 14-day survival rate ([6]; AMPH 0.5 mg/kg): 20%; 14-day survival rate ([6]; AMPH 1 mg/kg): 0%; Combined effects in mouse Aspergillus flavus infection model [6, 8]: synergistic combined effects
C[C@@H](c1ncncc1F)[C@](O)(Cn1cncn1)c1ccc(F)cc1F [Voriconazole, voriconazole] | 75% | 0% | 10% | 15% | 0% | 0% | 0% | 100% | 60% | 0% | 10% | 30% | 28% | 0% | 67% | 6% | 50% | 0% | 50% | 0% | 14-day survival rate ([7]; VRCZ 1 mg/kg): 0%; 14-day survival rate ([7]; VRCZ 2 mg/kg): 20%; Combination effects in mouse Aspergillus fumigatus infection model [7, 8]: synergistic combination effects
Nc1ncccc1-c1cc(Cc2ccc(COc3ccccn3)cc2)no1 [Test Compound 1, 3-(3-(4-(pyridin-2-yloxymethyl)-benzyl)-isoxazol-5-yl)-pyridin-2-ylamine] |  |  |  |  |  |  |  |  |  |  |  |  |  |  |  |  |  |  |  |  | 14-day survival rate ([7]; Test Compound 1 10 mg/kg, Table 3 MCFG experiment): 0%; 14-day survival rate ([7]; Test Compound 1 10 mg/kg, Table 3 RVCZ experiment): 0%; 14-day survival rate ([7]; Test Compound 1 10 mg/kg, Table 3 VRCZ experiment): 40%; 14-day survival rate ([7]; Test Compound 1 20 mg/kg, Table 3 MCFG experiment): 20%; 14-day survival rate ([7]; Test Compound 1 20 mg/kg, Table 3 RVCZ experiment): 20%; 14-day survival rate ([7]; Test Compound 1 20 mg/kg, Table 3 VRCZ experiment): 40%; 14-day survival rate ([6]; Test Compound 1 5 mg/kg, Table 4 AMPH experiment): 20%; 14-day survival rate ([6]; Test Compound 1 5 mg/kg, Table 4 MCFG experiment): 12.5%; 14-day survival rate ([6]; Test Compound 1 5 mg/kg, Table 4 RVCZ experiment): 20%; 14-day survival rate ([6]; Test Compound 1 8 mg/kg, Table 4 CSFG experiment): 0%; 14-day survival rate ([6]; Test Compound 1 10 mg/kg, Table 4 AMPH experiment): 60%; 14-day survival rate ([6]; Test Compound 1 10 mg/kg, Table 4 RVCZ experiment): 60%; 14-day survival rate ([6]; Test Compound 1 16 mg/kg, Table 4 CSFG experiment): 80%
